From patent publication US12024510B2, “Pyrazolopyridine-diamides, their use as insecticide and processes for preparing the same” (PI INDUSTRIES LTD., priority 2017, dated 2024)

Assays:
Format in all cases: in vivo
Helicoverpa armigera = Helicoverpa armigera diet incorporation method; conditions: third instar larvae, dead and moribund combined, 96 h after release
How it was run: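 500 ppm stock of compound milled with surfactant and zirconia beads to average particle size below 2 μm, dispersed in DM water, diluted as needed, and mixed into semi-synthetic diet at about 50° C. Single starved third-instar larvae per cell, held at 25° C., 70% RH; dead plus moribund larvae scored as percent mortality at 96 h.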

Plutella xylostella = assay: whole plant or invertebrate; conditions: foliar, cabbage leaf dip, second instar larvae, dead and moribund combined, 72 h after release
How it was run: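 Compounds milled with zirconia beads into surfactant dispersion (500 ppm stock), diluted in 0.01% Triton-X. Cabbage leaves dipped 10 s, shade-dried 20 min; one second-instar larva per cell, 25 °C, 70% RH. Mortality (dead plus moribund) scored at 72 h.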

Spodoptera litura = Spodoptera litura diet incorporation method; conditions: third instar larvae, dead and moribund combined, 96 h after release
How it was run: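 Compound milled to <2 μm average particle size in surfactant, dispersed in water (500 ppm stock dispersion), then mixed into semi-synthetic diet at ~50° C. One starved third-instar larva per diet cell, 25° C, 70% RH; percent mortality (dead plus moribund) scored at 96 h.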

Measured: mortality at 300 ppm

COc1cc(C(=O)Nc2c(Br)cc3ccnn3c2C(=O)NC(C)C(F)(F)F)n(-c2ncccc2Cl)n1 (stereo not drawn) [Compound 226, 5-bromo-6-(1-(3-chloropyridin-2-yl)-3-methoxy-1H-pyrazole-5-carboxamido)-N-(1,1,1-trifluoropropan-2-yl)pyrazolo[1,5-a]pyridine-7-carboxamide]
> 70%: all assays above
